# Assay results from US20100099692A1, “HARMFUL ORGANISM CONTROL COMPOSITION” (priority 2007, published 2010).
# Tests used:
# Bemisia tabaci imagoes [1] = assay: Test Example 1: cabbage leaf disc immersion test on Bemisia tabaci imagoes, controlling value after 4 days; assay type: in vivo; details: foliar, 96 h, cabbage leaf disc immersed 30 seconds; for pest or weed control at 400 ppm: compound I alone 400 ppm
# Bemisia tabaci imagoes [2] = assay: Test Example 2: cabbage leaf disc immersion test on Bemisia tabaci imagoes, controlling value after 2 days; assay type: in vivo; details: cabbage leaf disc immersed 30 seconds
SMILES,pest or weed control at 400 ppm (Bemisia tabaci imagoes [1]) [%],other results
COC(=O)NNC(=O)c1cc(Cl)cc(C)c1NC(=O)c1cc(Br)nn1-c1ncccc1Cl [compound I-(34)],100,–
COC(=O)NNC(=O)c1cc(Cl)cc(C)c1NC(=O)c1cc(C(F)(F)F)nn1-c1ncccc1Cl [compound I-(5)],100,–
COC(=O)NN(C)C(=O)c1cc(C#N)cc(C)c1NC(=O)c1cc(Br)nn1-c1ncccc1Cl [compound I-(138)],–,Pest controlling value (%) (Bemisia tabaci imagoes [2]; compound I-(138) alone 800 ppm): 33%
COC(=O)NNC(=O)c1cc(Cl)cc(Br)c1NC(=O)c1cc(Br)nn1-c1ncccc1Cl [compound I-(70)],90,–
"CC#CCOc1ncnc(N2CC(C)CC(C)C2)c1F (stereo not shown) [compound X, 4-(2-butynyloxy)-5-fluoro-6-(3,5-dimethylpiperidino)pyrimidine]",–,pest or weed control at 1000 ppm (Bemisia tabaci imagoes [1]; compound X alone 1000 ppm): 23%; Pest controlling value (%) (Bemisia tabaci imagoes [2]; compound X alone 2000 ppm): 75%
COC(=O)NNC(=O)c1cc(Br)cc(C)c1NC(=O)c1cc(C(F)(F)F)nn1-c1ncccc1Cl [compound I-(74)],100,–
COC(=O)NN(C)C(=O)c1cc(Cl)cc(C)c1NC(=O)c1cc(Br)nn1-c1ncccc1Cl [compound I-(115)],51,–
COC(=O)N(C)N(C)C(=O)c1cc(Br)cc(Br)c1NC(=O)c1cc(Br)nn1-c1ncccc1Cl [compound I-(204)],100,–
COC(=O)NNC(=O)c1cc(C#N)cc(C)c1NC(=O)c1cc(Br)nn1-c1ncccc1Cl [compound I-(117)],86,–
COC(=O)NNC(=O)c1cc(Br)cc(Br)c1NC(=O)c1cc(Br)nn1-c1ncccc1Cl [compound I-(68)],95,–
COC(=O)N(C)N(C)C(=O)c1cc(Cl)cc(C)c1NC(=O)c1cc(Br)nn1-c1ncccc1Cl [compound I-(119)],100,–
COC(=O)N(C)NC(=O)c1cc(Br)cc(Br)c1NC(=O)c1cc(Br)nn1-c1ncccc1Cl [compound I-(213)],100,–
